Assay results from PMC8151276, “An Integrated Approach toward NanoBRET Tracers for Analysis of GPCR Ligand Engagement” (Molecules, 2021).

Experiments:
Assay type in all cases: binding
AVPR1B = target: T1, AVPR1B (Homo sapiens, UniProt P47901); experiment: NanoBRET screen HiBiT-AVPR1B in HEK293
T1 construct: purchased Promega (in-house HiBiT-GPCR construct library, NanoBRET)
T1 sequence (P47901 1-424): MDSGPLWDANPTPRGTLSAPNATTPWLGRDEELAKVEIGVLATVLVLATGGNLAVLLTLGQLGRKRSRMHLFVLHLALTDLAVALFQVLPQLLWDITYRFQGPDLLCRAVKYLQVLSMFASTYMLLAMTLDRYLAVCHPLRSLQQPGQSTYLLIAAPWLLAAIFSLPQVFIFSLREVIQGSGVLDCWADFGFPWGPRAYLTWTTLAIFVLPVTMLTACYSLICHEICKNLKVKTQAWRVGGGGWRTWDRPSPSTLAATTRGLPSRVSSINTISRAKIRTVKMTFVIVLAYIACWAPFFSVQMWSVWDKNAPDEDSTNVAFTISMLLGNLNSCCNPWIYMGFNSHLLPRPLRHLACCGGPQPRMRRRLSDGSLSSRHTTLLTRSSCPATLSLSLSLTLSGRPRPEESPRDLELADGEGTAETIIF
Procedure: (§1) Each tracer candidate was screened across the entire library of HiBiT-GPCR constructs using NanoBRET as the detection modality. As depicted in Figure 4A, the specificity of interactions was evaluated through decrease in BRET due to competitive displacement of a bound tracer by excess parental compound. Each tracer was analyzed for binding to each HiBiT-GPCR fusion in the absence and in the presence of competing parental compound. Briefly, HEK293 cells were transfected with HiBiT-GPCR constructs diluted into promoterless DNA to reduce expression and maximize translocation to the cell surface. Each tracer candidate was then screened at concentrations of 1 μM and 0.1 μM across cells expressing these fusions. Cells were treated for 1.5 h with tracer either alone or in the presence of 20 μM competing parental compound (i.e., control). BRET was measured upon addition of purified LgBiT and subsequent complementation with HiBiT genetically fused to a GPCR. The specificity of interactions was assessed through a decrease in BRET signal due to competitive displacement of the bound tracer. To further gauge the robustness of these interactions, the fold response over the control (i.e., BRETtracer/BRETcontrol) was calculated. We chose a 1.5-fold response, which translates to ≥7-fold signal over noise as the minimal threshold required to score an interaction as positive. […]. Below we highlight the screening results obtained for our exemplary fluorescent tracers based on Clozapine, Amitriptyline and AZD1283.
(§2) HiBiT-GPCR DNA constructs were diluted in 10 mM Tris pH 8 to a final concentration of 0.01 μg/μL, arrayed in 96-well plates and stored at −20 °C. For transfection, HEK293 cells were suspended in Opti-MEM (without phenol red) supplemented with 2% fetal bovine serum (Seradigm) and 100 units/mL penicillin–streptomycin (Gibco) at a final concentration of 220,000 cells/mL and dispensed into white 96-well plates at 90 μL/well. Subsequent transfections and screens were carried using an Agilent Bravo Automated Liquid Handling Platform. First, the 96-well HiBiT DNA arrays were diluted 25-fold in Opti-MEM (without serum or phenol red) to a final concentration of 0.0004 μg/μL and 20 μL of the diluted DNAs were transferred into new 96-well plates. Next, promoterless carrier DNA (1 μg/μL) was diluted 25-fold (0.04 μg/μL) and then dispensed into the diluted arrays at 20 μL/well. Following brief mixing, Viafect transfection reagent (Promega) diluted 16-fold into Opti-MEM was dispensed into the plates at 40 μL/well. After mixing by pipetting, plates were incubated for 10 min on the pipetting station deck. The DNA-transfection reagent complexes were then added to plates containing cells. To facilitate the screen, 10 μL of DNA-transfection reagent complexes were added in duplicates to the top 4 and bottom 4 rows, resulting in two identical 48-well arrays per plate. Plates with transfected cells were incubated for 18–20 h at 37 °C/5% CO2. A screen of each tracer across the entire library using two different concentrations requires duplicate plates of transfected cells. Depending on the number of tracers being screened, transfections can be scaled up using the same ratios. The next day, for each tracer, four 20× screening solutions in tracer dilution buffer (Promega) were prepared: two duplicates at final concentration of 20 μM and two duplicates at a final concentration of 2 μM. A competing unmodified compound was added to one of each duplicate at a final concentration of 400 μM. The four resulting solutions were diluted 4-fold in Opti-MEM without serum or phenol red to generate 5× solutions (5 µM and 0.5 µM tracer +/− 100 μM competing compound). To screen the library, a BioTek MultiFlo FX liquid dispenser was used to dispense 22.5 µL of tracer solution to the top 4 rows and 22.5 µL tracer + competing compound solution to the 4 bottom rows. Plates were briefly mixed on an orbital shaker and incubated for 1.5 h at room temperature. […]

CXCR6 = target: T2, CXCR6 (Homo sapiens, UniProt O00574); experiment: NanoBRET screen HiBiT-CXCR6 in HEK293
T2 construct: purchased Promega (in-house HiBiT-GPCR construct library, NanoBRET)
Procedure: as §1, §2

HTR1E = target: T3, HTR1E (Homo sapiens, UniProt P28566); experiment: NanoBRET screen HiBiT-HTR1E in HEK293
T3 construct: purchased Promega (in-house HiBiT-GPCR construct library, NanoBRET)
Procedure: as §1, §2

T2 sequence (O00574 whole entry): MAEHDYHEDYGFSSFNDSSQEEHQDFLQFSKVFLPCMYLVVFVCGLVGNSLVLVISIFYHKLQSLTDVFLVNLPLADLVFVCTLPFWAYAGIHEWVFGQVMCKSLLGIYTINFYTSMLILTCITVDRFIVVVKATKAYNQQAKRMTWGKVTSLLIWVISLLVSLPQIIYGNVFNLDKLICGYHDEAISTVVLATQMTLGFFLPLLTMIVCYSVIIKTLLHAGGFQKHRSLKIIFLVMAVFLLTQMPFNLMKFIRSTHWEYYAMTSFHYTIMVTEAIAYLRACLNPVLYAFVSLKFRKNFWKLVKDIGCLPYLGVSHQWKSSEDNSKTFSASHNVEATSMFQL
T3 sequence (P28566 whole entry): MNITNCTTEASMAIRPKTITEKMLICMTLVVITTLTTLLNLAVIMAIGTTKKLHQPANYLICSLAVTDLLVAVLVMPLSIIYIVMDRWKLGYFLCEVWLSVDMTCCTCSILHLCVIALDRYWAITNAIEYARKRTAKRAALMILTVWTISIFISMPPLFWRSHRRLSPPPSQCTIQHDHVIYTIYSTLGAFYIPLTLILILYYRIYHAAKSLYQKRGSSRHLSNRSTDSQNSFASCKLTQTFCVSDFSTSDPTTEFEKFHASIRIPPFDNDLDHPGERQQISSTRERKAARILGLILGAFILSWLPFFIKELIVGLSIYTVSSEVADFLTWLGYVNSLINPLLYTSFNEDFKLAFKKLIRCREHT

| SMILES | NanoBRET Fold Response (AVPR1B; AVPR1B, tracer 0.1μM) | NanoBRET Fold Response (AVPR1B; AVPR1B, tracer 1μM) | NanoBRET Fold Response (CXCR6; CXCR6, tracer 0.1μM) | NanoBRET Fold Response (CXCR6; CXCR6, tracer 1μM) | NanoBRET Fold Response (HTR1E; HTR1E, tracer 0.1μM) | NanoBRET Fold Response (HTR1E; HTR1E, tracer 1μM) | NanoBRET Fold Response (AVPR1B; tracer at 1μM) | NanoBRET Fold Response (CXCR6; tracer at 1μM) | NanoBRET Fold Response (HTR1E; tracer at 1μM) | NanoBRET Fold Response (AVPR1B; 0.1μM tracer) | NanoBRET Fold Response (AVPR1B; 1μM tracer) | NanoBRET Fold Response (CXCR6; 0.1μM tracer) | NanoBRET Fold Response (CXCR6; 1μM tracer) | NanoBRET Fold Response (HTR1E; 0.1μM tracer) | NanoBRET Fold Response (HTR1E; 1μM tracer) |
| --- | --- | --- | --- | --- | --- | --- | --- | --- | --- | --- | --- | --- | --- | --- | --- |
| O=C(CCc1ccc2n1[B-](F)(F)[N+]1=C(c3ccc[nH]3)C=CC1=C2)NCc1ccc(C(=O)NCCOCCC(=O)N[C@@H]2CC[C@@]3(O)[C@H]4Cc5ccc(O)c6c5[C@@]3(CCN4CC3CC3)[C@H]2O6)cc1 [Naltrexone-3-NB590] | 1.19 | 1.17 | 1.02 | 0.91 | 0.72 | 0.90 | – | – | – | – | – | – | – | – | – |
| COc1ccccc1N1CCN(CCCCN2C(=O)c3ccc(CNC(=O)CCOCCNC(=O)c4ccc(CNC(=O)CCc5ccc6n5[B-](F)(F)[N+]5=C(c7ccc[nH]7)C=CC5=C6)cc4)cc3C2=O)CC1 [NAN-190-3-NB590] | 1.04 | 1.04 | 1.15 | 0.93 | 0.84 | 0.91 | – | – | – | – | – | – | – | – | – |
| Cc1cc2c(s1)Nc1ccccc1N=C2N1CCN(CCCNC(=O)CCOCCOCCOCCOCCNC(=O)CCc2ccc3n2[B-](F)(F)[N+]2=C(c4ccc[nH]4)C=CC2=C3)CC1 [Olanzapine-a-2-NB590] | 1.03 | 1.17 | 1.00 | 0.98 | 0.99 | 1.09 | – | – | – | – | – | – | – | – | – |
| CCCn1c(=O)c2[nH]c(-c3ccc(OCC(=O)NCCNC(=O)CCOCCNC(=O)c4ccc(CNC(=O)CCc5ccc6n5[B-](F)(F)[N+]5=C(c7ccc[nH]7)C=CC5=C6)cc4)cc3)nc2n(CCC)c1=O [XAC-3-NB590] | 0.90 | 1.21 | 1.06 | 1.09 | 1.08 | 0.78 | – | – | – | – | – | – | – | – | – |
| CN(CCC=C1c2ccccc2CCc2ccccc21)C(=O)CCOCCOCCOCCOCCNC(=O)CCc1ccc2n1[B-](F)(F)[N+]1=C(c3ccc[nH]3)C=CC1=C2 [Amitriptyline-e-2-NB590] | – | – | – | – | – | – | 1.01 | 0.98 | 0.96 | – | – | – | – | – | – |
| COc1ccc2c(n1)c(CCNC(C)=O)cn2CCNC(=O)CCc1ccc2n1[B-](F)(F)[N+]1=C(c3ccc[nH]3)C=CC1=C2 [Azamelatonin-1-NB590] | – | – | – | – | – | – | – | – | – | 0.90 | 1.00 | 1.07 | 0.89 | 0.99 | 0.99 |
